Test results from PubChem BioAssay (NCI).
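1) Cells in 96-well plates. 2) Compound, 48 h, 5 concentrations. 3) Linear interpolation between surrounding doses. 4) Unreached endpoint = highest concentration. Here, GI50 denotes the concentration required for 50% inhibition of growth. At the TGI there is no net growth.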

Legend:
Assay in all cases: growth of human tumour cells (NCI), 48 h
786-0 renal = system: 786-0 renal
A498 renal = system: A498 renal
A549 NSCLC = system: A549 NSCLC
ACHN renal = system: ACHN renal
BT-549 breast = system: BT-549 breast
CCRF-CEM leukemia = system: CCRF-CEM leukemia
COLO 205 colon = system: COLO 205 colon
DU-145 prostate = system: DU-145 prostate
HCC-2998 colon = system: HCC-2998 colon
HCT-116 colon = system: HCT-116 colon
HCT-15 colon = system: HCT-15 colon
HL-60(TB) leukemia = system: HL-60(TB) leukemia
HOP-62 NSCLC = system: HOP-62 NSCLC
HOP-92 NSCLC = system: HOP-92 NSCLC
HS 578T breast = system: HS 578T breast
HT29 colon = system: HT29 colon
IGROV1 ovarian = system: IGROV1 ovarian
K-562 leukemia = system: K-562 leukemia
KM12 colon = system: KM12 colon
LOX IMVI melanoma = system: LOX IMVI melanoma
M14 melanoma = system: M14 melanoma
MALME-3M melanoma = system: MALME-3M melanoma
MCF7 breast = system: MCF7 breast
MDA-MB-231 breast = system: MDA-MB-231 breast
MDA-MB-435 = system: MDA-MB-435
MOLT-4 leukemia = system: MOLT-4 leukemia
NCI-H226 lung = system: NCI-H226 lung
NCI-H23 lung = system: NCI-H23 lung
NCI-H460 lung = system: NCI-H460 lung
NCI-H522 lung = system: NCI-H522 lung
NCI/ADR-RES ovarian = system: NCI/ADR-RES ovarian
OVCAR-3 ovarian = system: OVCAR-3 ovarian
OVCAR-4 ovarian = system: OVCAR-4 ovarian
OVCAR-5 ovarian = system: OVCAR-5 ovarian
OVCAR-8 ovarian = system: OVCAR-8 ovarian
PC-3 prostate = system: PC-3 prostate
RPMI-8226 leukemia = system: RPMI-8226 leukemia
RXF 393 renal = system: RXF 393 renal
SF-268 CNS = system: SF-268 CNS
SF-295 CNS = system: SF-295 CNS
SF-539 CNS = system: SF-539 CNS
SK-MEL-2 melanoma = system: SK-MEL-2 melanoma
SK-MEL-28 melanoma = system: SK-MEL-28 melanoma
SK-MEL-5 melanoma = system: SK-MEL-5 melanoma
SK-OV-3 ovarian = system: SK-OV-3 ovarian
SN12C renal = system: SN12C renal
SNB-19 CNS = system: SNB-19 CNS
SNB-75 CNS = system: SNB-75 CNS
SR leukemia = system: SR leukemia
SW-620 colon = system: SW-620 colon
T-47D breast = system: T-47D breast
TK-10 renal = system: TK-10 renal
U251 CNS = system: U251 CNS
UACC-257 melanoma = system: UACC-257 melanoma
UACC-62 melanoma = system: UACC-62 melanoma
UO-31 renal = system: UO-31 renal

For COc1ccc(-c2cc(/C=C/C(=O)c3ccc(N)cc3)[nH]n2)cc1OC, which GI50 (786-0 renal) is on record?
The GI50 was 1.88 µM.

And the TGI (786-0 renal)?
The TGI was 4.39 µM.

What about the GI50 (A498 renal) of the same compound?
The GI50 was 2.37 µM.

And the TGI (A498 renal)?
Its TGI is 7.09 µM.

What about the GI50 (A549 NSCLC) of the same compound?
Its GI50 is 2.75 µM.

What about the TGI (A549 NSCLC) of the same compound?
Its TGI is 10.1 µM.

What about the GI50 (ACHN renal) of the same compound?
The GI50 was 1.67 µM.

What about the TGI (ACHN renal) of the same compound?
The TGI was 3.29 µM.

What about the GI50 (BT-549 breast) of the same compound?
The GI50 was 1.5 µM.

What about the TGI (BT-549 breast) of the same compound?
The TGI was 2.94 µM.

What about the GI50 (CCRF-CEM leukemia) of the same compound?
The GI50 was 1.74 µM.

What about the TGI (CCRF-CEM leukemia) of the same compound?
Its TGI is 7.81 µM.

What about the GI50 (COLO 205 colon) of the same compound?
The GI50 was 1.88 µM.

And the TGI (COLO 205 colon)?
Its TGI is 3.59 µM.

And the GI50 (DU-145 prostate)?
The GI50 was 3.74 µM.

And the TGI (DU-145 prostate)?
The TGI was 13.5 µM.

What about the GI50 (HCC-2998 colon) of the same compound?
The GI50 was 2.02 µM.

And the TGI (HCC-2998 colon)?
The TGI was 3.83 µM.

And the GI50 (HCT-116 colon)?
The GI50 was 1.71 µM.

And the TGI (HCT-116 colon)?
The TGI was 3.51 µM.

What about the GI50 (HCT-15 colon) of the same compound?
The GI50 was 1.7 µM.

And the TGI (HCT-15 colon)?
The TGI was 5.37 µM.

What about the GI50 (HL-60(TB) leukemia) of the same compound?
The GI50 was 3.45 µM.

And the TGI (HL-60(TB) leukemia)?
Its TGI is over 100 µM.

What about the GI50 (HOP-62 NSCLC) of the same compound?
The GI50 was 2.8 µM.

What about the TGI (HOP-62 NSCLC) of the same compound?
Its TGI is 9.67 µM.

What about the GI50 (HOP-92 NSCLC) of the same compound?
The GI50 was 14.9 µM.

And the TGI (HOP-92 NSCLC)?
The TGI was 30.9 µM.

What about the GI50 (HS 578T breast) of the same compound?
The GI50 was 6.58 µM.

And the TGI (HS 578T breast)?
Its TGI is over 100 µM.

What about the GI50 (HT29 colon) of the same compound?
The GI50 was 2.6 µM.

What about the TGI (HT29 colon) of the same compound?
The TGI was 6.91 µM.

What about the GI50 (IGROV1 ovarian) of the same compound?
The GI50 was 4.56 µM.

What about the TGI (IGROV1 ovarian) of the same compound?
The TGI was 19 µM.

What about the GI50 (K-562 leukemia) of the same compound?
The GI50 was 2.03 µM.

What about the TGI (K-562 leukemia) of the same compound?
Its TGI is 36.4 µM.

And the GI50 (KM12 colon)?
The GI50 was 1.68 µM.

What about the TGI (KM12 colon) of the same compound?
The TGI was 3.35 µM.

What about the GI50 (LOX IMVI melanoma) of the same compound?
The GI50 was 1.92 µM.

And the TGI (LOX IMVI melanoma)?
The TGI was 3.91 µM.

What about the GI50 (M14 melanoma) of the same compound?
Its GI50 is 2.28 µM.

And the TGI (M14 melanoma)?
The TGI was 5.11 µM.

And the GI50 (MALME-3M melanoma)?
The GI50 was 6.72 µM.

And the TGI (MALME-3M melanoma)?
The TGI was 21.2 µM.

And the GI50 (MCF7 breast)?
The GI50 was 2.28 µM.

And the TGI (MCF7 breast)?
Its TGI is 8.48 µM.

What about the GI50 (MDA-MB-231 breast) of the same compound?
The GI50 was 4.42 µM.

What about the TGI (MDA-MB-231 breast) of the same compound?
The TGI was 17.2 µM.

What about the GI50 (MDA-MB-435) of the same compound?
Its GI50 is 2.53 µM.

And the TGI (MDA-MB-435)?
The TGI was 7.23 µM.

And the GI50 (MOLT-4 leukemia)?
The GI50 was 3.11 µM.

And the TGI (MOLT-4 leukemia)?
Its TGI is 16.5 µM.

And the GI50 (NCI-H226 lung)?
Its GI50 is 2.32 µM.

What about the TGI (NCI-H226 lung) of the same compound?
The TGI was 7.38 µM.

What about the GI50 (NCI-H23 lung) of the same compound?
Its GI50 is 4.21 µM.

What about the TGI (NCI-H23 lung) of the same compound?
Its TGI is 19.3 µM.

What about the GI50 (NCI-H460 lung) of the same compound?
The GI50 was 2.03 µM.

What about the TGI (NCI-H460 lung) of the same compound?
The TGI was 4.53 µM.

And the GI50 (NCI-H522 lung)?
The GI50 was 1.65 µM.

And the TGI (NCI-H522 lung)?
Its TGI is 3.22 µM.

And the GI50 (NCI/ADR-RES ovarian)?
Its GI50 is 6.21 µM.

And the TGI (NCI/ADR-RES ovarian)?
Its TGI is over 100 µM.

And the GI50 (OVCAR-3 ovarian)?
Its GI50 is 1.92 µM.

What about the TGI (OVCAR-3 ovarian) of the same compound?
Its TGI is 4.19 µM.

And the GI50 (OVCAR-4 ovarian)?
Its GI50 is 2.68 µM.

What about the TGI (OVCAR-4 ovarian) of the same compound?
Its TGI is 15.8 µM.

What about the GI50 (OVCAR-5 ovarian) of the same compound?
The GI50 was 2.62 µM.

What about the TGI (OVCAR-5 ovarian) of the same compound?
Its TGI is 7.94 µM.

And the GI50 (OVCAR-8 ovarian)?
Its GI50 is 2.95 µM.

And the TGI (OVCAR-8 ovarian)?
The TGI was 10.5 µM.

And the GI50 (PC-3 prostate)?
Its GI50 is 3.71 µM.

What about the TGI (PC-3 prostate) of the same compound?
Its TGI is 19.8 µM.

What about the GI50 (RPMI-8226 leukemia) of the same compound?
Its GI50 is 1.28 µM.

And the TGI (RPMI-8226 leukemia)?
Its TGI is 5.52 µM.

And the GI50 (RXF 393 renal)?
The GI50 was 2.15 µM.

And the TGI (RXF 393 renal)?
Its TGI is 5.12 µM.

And the GI50 (SF-268 CNS)?
The GI50 was 1.89 µM.

What about the TGI (SF-268 CNS) of the same compound?
Its TGI is 4.4 µM.

And the GI50 (SF-295 CNS)?
The GI50 was 3.58 µM.

What about the TGI (SF-295 CNS) of the same compound?
The TGI was 15.2 µM.

What about the GI50 (SF-539 CNS) of the same compound?
Its GI50 is 1.73 µM.

And the TGI (SF-539 CNS)?
The TGI was 3.53 µM.

And the GI50 (SK-MEL-2 melanoma)?
The GI50 was 8.44 µM.

What about the TGI (SK-MEL-2 melanoma) of the same compound?
Its TGI is 22.2 µM.

What about the GI50 (SK-MEL-28 melanoma) of the same compound?
Its GI50 is 2.14 µM.

What about the TGI (SK-MEL-28 melanoma) of the same compound?
The TGI was 5.66 µM.

And the GI50 (SK-MEL-5 melanoma)?
Its GI50 is 3.16 µM.

And the TGI (SK-MEL-5 melanoma)?
Its TGI is 11.5 µM.

What about the GI50 (SK-OV-3 ovarian) of the same compound?
Its GI50 is 4.86 µM.

What about the TGI (SK-OV-3 ovarian) of the same compound?
The TGI was 16.8 µM.

What about the GI50 (SN12C renal) of the same compound?
The GI50 was 3.53 µM.

And the TGI (SN12C renal)?
The TGI was 13.7 µM.

What about the GI50 (SNB-19 CNS) of the same compound?
The GI50 was 4.36 µM.

And the TGI (SNB-19 CNS)?
Its TGI is 18 µM.

And the GI50 (SNB-75 CNS)?
The GI50 was 2.74 µM.

And the TGI (SNB-75 CNS)?
The TGI was 14.2 µM.

What about the GI50 (SR leukemia) of the same compound?
The GI50 was 0.587 µM.

What about the TGI (SR leukemia) of the same compound?
Its TGI is 5.31 µM.

What about the GI50 (SW-620 colon) of the same compound?
The GI50 was 2.5 µM.

What about the TGI (SW-620 colon) of the same compound?
The TGI was 6.94 µM.

What about the GI50 (T-47D breast) of the same compound?
Its GI50 is 4.25 µM.

What about the TGI (T-47D breast) of the same compound?
Its TGI is 26 µM.

And the GI50 (TK-10 renal)?
The GI50 was 10.9 µM.

And the TGI (TK-10 renal)?
The TGI was 23 µM.

And the GI50 (U251 CNS)?
The GI50 was 1.74 µM.

What about the TGI (U251 CNS) of the same compound?
The TGI was 3.66 µM.

What about the GI50 (UACC-257 melanoma) of the same compound?
The GI50 was 6.46 µM.

And the TGI (UACC-257 melanoma)?
Its TGI is 19.5 µM.

What about the GI50 (UACC-62 melanoma) of the same compound?
Its GI50 is 3.11 µM.

What about the TGI (UACC-62 melanoma) of the same compound?
The TGI was 10.9 µM.

What about the GI50 (UO-31 renal) of the same compound?
The GI50 was 3.03 µM.

What about the TGI (UO-31 renal) of the same compound?
The TGI was 13.1 µM.
